Assay results: BigSolDB 2.1

CC[C@@H](C(=O)[C@@H](C)[C@@H](O)[C@H](C)CCc1ccc(C)c(O)c1C(=O)[O-])[C@H]1O[C@](CC)([C@H]2CC[C@](O)(CC)[C@H](C)O2)C[C@@H]1C.[Na+]
solubility (mole fraction)
Conditions | 283.15 K | 288.15 K | 293.15 K | 298.15 K | 303.15 K | 308.15 K | 313.15 K | 318.15 K | 323.15 K
in acetone | 0.0117 | 0.0119 | 0.0121 | 0.0123 | 0.0125 | 0.0127 | 0.0129 | 0.0132 | 0.0135
in ethanol | 0.00223 | 0.00246 | 0.0026 | 0.00311 | 0.00364 | 0.00419 | 0.00456 | 0.00502 | 0.00564
in ethyl acetate | 0.00531 | 0.00538 | 0.00548 | 0.00556 | 0.00566 | 0.00575 | 0.00587 | 0.00596 | 0.00602
in isopropanol | 0.00085 | 0.00095 | 0.00106 | 0.00117 | 0.00136 | 0.00161 | 0.00191 | 0.00211 | 0.00233
in methanol | 0.00259 | 0.00293 | 0.0031 | 0.00352 | 0.00391 | 0.00413 | 0.00456 | 0.00508 | 0.00577
